Test [1] has as its system oncogenic mutant Notch1 (ΔEGF-Notch1-L1594P-MYC) activity.
Protocol: Cells transduced with ΔEGF-Notch1-L1594P construct were maintained with 1 μg/ml of puromycin. pcDNA3 hNotch1 full-length construct, encoding an N terminal FLAG-tag, followed by the ectodomains and the transmembrane domains of Notch1 fused to the Gal4 DNA binding domain and the transcriptional activation domain of Notch1 was used.
Firefly luciferase encoding reporter plasmids containing synthetic CSL binding sites (pGL4.24-12xCSL) was used to monitor Notch activity, using pGL4.74 TK-hRL (Promega) as transfection control. […] A CMV driven Firefly luciferase-GFP construct was used as transfection control. Transfections were performed using Fugene HD transfection reagent (Promega). […]
1 μg of the primary reporter was used to record the effect of specific stimuli and 0.1 μg of the control reporter for normalization. […] Cells were washed, lysed and luciferase was measured, as described by manufacturer (dual-glo luciferase reporter assay system Promega) on a Fluostar Omega plate reader (BMG Labtech) For Gal4-luciferase assay, various concentrations of the Notch receptor plasmids were transfected and complemented with empty vector. […] For Gaussia-Luc assay, medium was collected at different time points to monitor overtime 12xCSL activation and measured with the BioLux® Gaussia Luciferase Assay Kit according to manufacturer's instructions (NEB). All values are expressed as relative light units (RLU).
Another test addresses T1, Presenilin 2 (Psen2) (Homo sapiens, UniProt P49810).
T1 construct: expressed in transfected cells; host or cells: PS1/2 DKO mouse embryonic fibroblasts (mEF) reconstituted with Presenilin 2
Put plainly: Presenilin specific luciferase/cleavage reporter assay in PS1/2 DKO mEF reconstituted with Presenilin 2. To be noted: Psen2 reconstituted cells, compared to cleavage inhibition of the same compound for Psen1; FIG. 4. The test is classed as cell-based. As for the experimental part:
Immunoblot on cell lysates of PS1/2 DKO cells, and PS1/2 DKO reconstituted with either Presenilin 1 or Presenilin 2 were provided. Blots were probed with antibodies for nicastrin, Presenilin 1 (C-terminal fragment), Presenilin 2 (C-terminal fragment), and β-actin (loading control) to verify the cell construct used for later experiments. Double knock out of PSEN1 and PSEN2 and reconstitution were successful.
Cells were plated 24 hours prior to transfection in 6 wells plates (200.000 cells/well in 2 mL). Cells were transfected using linear polyethylenimin (P-PEI) and DMEM/f12. 2.3 μg Firefly luciferase reporter plasmids containing synthetic Gal4-binding sites (5xUAS FR-luc) were used per 6 well, as well as 150 ng herpes thymidine kinase-driven Renilla luciferase (here serving as a housekeeping gene, and thus normalizing yardstick) and 50 ng Histone-2B (H2B)-GFP (here serving as a control for transfection success). […] 24 h after transfection, […] were washed with PBS, lysed and measured following manufacturer's directions for the Dual Luciferase Reporter (DLRTM) Assay system (Promega, The Netherlands). Analysis was carried out using the FLUOstar microplate reader (BMG Labtech, Germany). […]
A general note: In a reporter assay the amount or activity of a reporter protein is the signal.

T1 sequence (P49810 1-297 limits assumed): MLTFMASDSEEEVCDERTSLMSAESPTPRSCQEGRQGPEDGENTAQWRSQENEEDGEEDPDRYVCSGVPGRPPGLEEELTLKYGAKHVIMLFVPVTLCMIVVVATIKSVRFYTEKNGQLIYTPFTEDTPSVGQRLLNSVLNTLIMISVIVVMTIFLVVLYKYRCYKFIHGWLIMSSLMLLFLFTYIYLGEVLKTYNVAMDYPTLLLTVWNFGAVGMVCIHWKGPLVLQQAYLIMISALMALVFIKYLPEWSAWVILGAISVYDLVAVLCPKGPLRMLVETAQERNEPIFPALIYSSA
T1 sequence (P49810 298-448 limits assumed): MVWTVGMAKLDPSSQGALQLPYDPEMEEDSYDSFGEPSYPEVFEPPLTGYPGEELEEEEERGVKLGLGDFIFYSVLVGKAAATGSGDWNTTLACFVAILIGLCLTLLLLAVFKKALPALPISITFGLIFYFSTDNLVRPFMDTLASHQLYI
T1 sequence (P57716 34-708 partner limits assumed): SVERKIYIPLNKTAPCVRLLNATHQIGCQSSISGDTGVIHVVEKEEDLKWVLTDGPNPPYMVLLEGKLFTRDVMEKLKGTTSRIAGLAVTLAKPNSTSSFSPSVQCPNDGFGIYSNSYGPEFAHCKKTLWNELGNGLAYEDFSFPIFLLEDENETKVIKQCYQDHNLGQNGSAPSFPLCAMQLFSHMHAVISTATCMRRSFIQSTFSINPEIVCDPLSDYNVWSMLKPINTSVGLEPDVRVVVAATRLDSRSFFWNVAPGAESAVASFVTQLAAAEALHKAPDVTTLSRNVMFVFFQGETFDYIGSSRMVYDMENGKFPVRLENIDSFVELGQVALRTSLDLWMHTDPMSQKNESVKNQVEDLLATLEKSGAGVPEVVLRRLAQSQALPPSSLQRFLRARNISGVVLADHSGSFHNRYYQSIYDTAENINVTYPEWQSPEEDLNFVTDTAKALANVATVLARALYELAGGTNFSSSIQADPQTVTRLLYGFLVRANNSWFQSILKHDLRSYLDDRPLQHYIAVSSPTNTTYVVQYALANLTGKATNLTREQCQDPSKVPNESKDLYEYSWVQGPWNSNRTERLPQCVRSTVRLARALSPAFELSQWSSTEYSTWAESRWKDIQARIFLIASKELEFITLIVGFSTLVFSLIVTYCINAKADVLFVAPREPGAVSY
T1 sequence (Q8BVF7 whole entry partner): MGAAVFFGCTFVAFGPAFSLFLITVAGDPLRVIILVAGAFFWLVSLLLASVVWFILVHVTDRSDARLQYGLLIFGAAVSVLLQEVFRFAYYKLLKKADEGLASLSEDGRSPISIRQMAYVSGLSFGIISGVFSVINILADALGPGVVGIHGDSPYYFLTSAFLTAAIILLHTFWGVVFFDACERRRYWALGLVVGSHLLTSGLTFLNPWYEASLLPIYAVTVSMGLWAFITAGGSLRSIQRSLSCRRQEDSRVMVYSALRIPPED
T1 sequence (Q9CQR7 whole entry partner): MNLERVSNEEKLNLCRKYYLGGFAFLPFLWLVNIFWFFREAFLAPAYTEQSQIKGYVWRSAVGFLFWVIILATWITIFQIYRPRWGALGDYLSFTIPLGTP

As for `CCN(CC)CCCC(C)Nc1ccnc2cc(Cl)ccc12` (centres unmarked) [CQ, Chloroquine], the “Inhibition of mutant Notch1 transcriptional activity by CQ” value in test [1] was “most strongly inhibited”. Take `CCC[C@H](NC(=O)[C@@H](O)c1cc(F)cc(F)c1)C(=O)Nc1cn(C(C)(C)CN(C)C)cn1` [SN262, (S)-2-((S)-2-(3,5-difluorophenyl)-2-hydroxyacetamido)-N-(1-(1-(dimethylamino)-2-methylpropan-2-yl)-1H-imidazol-4-yl)pentanamide]: on Presenilin 2 (Psen2), the “Cleavage inhibition (Psen2 specificity)” value was “high percentage of cleavage inhibition”.

Source of the values: patent US20210196681A1, “SELECTIVE PRESENILIN-2 GAMMA-SECRETASE INHIBITORS” (UNIVERSITEIT MAASTRICHT, priority 2018, published 2021).
